Reference: patent US20250154134A1, “COMPOUND AS FAK INHIBITOR AND USE THEREOF” (WIGEN BIOMEDICINE TECHNOLOGY (SHANGHAI) CO., LTD., priority 2022, published 2025)

Experiments:
FAK recombinant protein = FAK recombinant protein (Homo sapiens (Human), UniProt Q05397); assay: Inhibitory activity against FAK enzyme (HTRF, TK substrate); type: biochemical
Protocol: A compound serially diluted with DMSO was mixed with a FAK recombinant protein. After the mixture was left to stand at room temperature for 10 min, a biotin-labeled TK substrate (TK) and ATP were added. […] The inhibition percentage and IC50 of the compound were calculated compared to the DMSO control group.

PC3 cells [1] = assay: PC3 cell proliferation, 2D activity assay (Cell Titer-Lumi, 72 h); type: cell-based, human; details: Homo sapiens, PC-3, read-out: 2D inhibitory activity against PC3 cells IC50
PC3 cells [2] = assay: PC3 cell proliferation, 3D activity assay (3D culture, 14 days); type: cell-based, human; details: Homo sapiens, PC-3, 336 h, read-out: 3D inhibitory activity against PC3 cells IC50
PC3 cells [3] = assay: Inhibition of PC3 cell low adsorption (adherent cell count, 4 h); type: cell-based; details: Homo sapiens, PC-3; 4 h treatment; read-out: IC50 against PC3 cell low adsorption
Protocol: PC3 cells were seeded at 8000 cells/well. 4 h after the cells were treated with a compound, the number of adherent cells was counted. The inhibition percentage and IC50 of the compound were calculated compared to the DMSO group.

[4] = test system: phosphorylation at the FAK 397 site; assay: Inhibition of Y397 phosphorylation in PC3 cells (ELISA); type: cell-based; details: Homo sapiens, PC-3, 3 h treatment, read-out: IC50 against Y397 phosphorylation
Protocol: PC3 cells were seeded at 8000 cells/well. […] The inhibition percentage and IC50 of the compound were calculated compared to the DMSO group.

[5] = In vivo pharmacokinetic experiment in CD-1 mice; details: mouse, plasma, CD-1 female mice; for Vd: read-out: Vdss
Protocol: […] The mice were fasted for at least 12 h before the administration and given food 4 h after the administration, and they were given ad libitum access to water during the experiment.
On the day of the experiment, animals in the intravenous group were given the corresponding compound by single injection via the tail vein at an administration volume of 10 mL/kg; and animals in the oral group were given the corresponding compound by single intragastric injection at an administration volume of 10 mL/kg. The animals were weighed before administration, and the administration volume was calculated according to the body weight. The sample collection time points were 0.083 h, 0.167 h, 0.5 h, 1 h, 2 h, 4 h, 8 h, and 24 h. About 200 μL of whole blood was collected through the orbital venous plexus at each time point and used to prepare plasma for concentration determination by high-performance liquid chromatography-tandem mass spectrometry (LC-MS/MS). The plasma concentrations were processed using a non-compartmental model of Winnolin pharmacokinetic software, and the pharmacokinetic parameters were calculated using a linear-log trapezoidal method.

[6] = test system: Human pancreatic cancer Mia PaCa-2 cells; assay: In vivo efficacy, Mia PaCa-2 xenograft in nude mice; set-up: species or system mouse; details: MiaPaCa-2 model, 25 mg/kg PO QD 21 days
Protocol: (§1) The groups were as follows: 1) a solvent control group, 8 mice; and 2) a control compound group and a test compound group, 8 mice each. The mice in the solvent control group were intragastrically administered 0.5% CMC-Na twice a day; the mice in the compound groups were intragastrically administered 0.50% MC-Tween-80 suspension once a day. On Tuesday and Thursday each week, tumor volumes and body weight of the mice were measured, and the nude mice were sacrificed on day 21 after the administration. […] The toxicity of the compounds was evaluated according to the body weight of the mice.

[7] = test system: Human prostate cancer PC3 cells; assay: In vivo efficacy, PC3 xenograft in nude mice; set-up: species or system mouse; details: PC-3 model, 25 mg/kg, QD (21 days), PO
Protocol: as §1, with “0.5%” for “0.50%”

[8] = test system: Mouse colon cancer MC38 cells; assay: In vivo efficacy, MC38 model in BALB/c mice, single drug and PD-1 combination; details: MC-38 model, single drug, 50 mg/kg, QD (21 days), PO
Protocol: Female BALB/c mice (aged 6 weeks, 18-22 g) were provided by Vital River Laboratory Animal Technology Co., Ltd. (China) and used one week after quarantine and acclimation. All animals were kept in a room at 23±2° C. with a relative humidity of 50±5%, artificial lighting was provided from 08:00 to 20:00 every day, and the air was exchanged 13-18 times per hour.
After being subcultured, the cells were collected when they reached the desired amount. The BALB/c mice were subcutaneously injected with 1×10^6 MC38 cells on the right side to form tumors. […] Administration was then started. Tumor volumes were measured with a caliper on day 3, day 7, day 10, day 14, day 17, and day 21 after the administration.
The toxicity of the compounds was evaluated according to the body weight and state of the mice.

FAK recombinant protein, sequence (Q05397 whole entry): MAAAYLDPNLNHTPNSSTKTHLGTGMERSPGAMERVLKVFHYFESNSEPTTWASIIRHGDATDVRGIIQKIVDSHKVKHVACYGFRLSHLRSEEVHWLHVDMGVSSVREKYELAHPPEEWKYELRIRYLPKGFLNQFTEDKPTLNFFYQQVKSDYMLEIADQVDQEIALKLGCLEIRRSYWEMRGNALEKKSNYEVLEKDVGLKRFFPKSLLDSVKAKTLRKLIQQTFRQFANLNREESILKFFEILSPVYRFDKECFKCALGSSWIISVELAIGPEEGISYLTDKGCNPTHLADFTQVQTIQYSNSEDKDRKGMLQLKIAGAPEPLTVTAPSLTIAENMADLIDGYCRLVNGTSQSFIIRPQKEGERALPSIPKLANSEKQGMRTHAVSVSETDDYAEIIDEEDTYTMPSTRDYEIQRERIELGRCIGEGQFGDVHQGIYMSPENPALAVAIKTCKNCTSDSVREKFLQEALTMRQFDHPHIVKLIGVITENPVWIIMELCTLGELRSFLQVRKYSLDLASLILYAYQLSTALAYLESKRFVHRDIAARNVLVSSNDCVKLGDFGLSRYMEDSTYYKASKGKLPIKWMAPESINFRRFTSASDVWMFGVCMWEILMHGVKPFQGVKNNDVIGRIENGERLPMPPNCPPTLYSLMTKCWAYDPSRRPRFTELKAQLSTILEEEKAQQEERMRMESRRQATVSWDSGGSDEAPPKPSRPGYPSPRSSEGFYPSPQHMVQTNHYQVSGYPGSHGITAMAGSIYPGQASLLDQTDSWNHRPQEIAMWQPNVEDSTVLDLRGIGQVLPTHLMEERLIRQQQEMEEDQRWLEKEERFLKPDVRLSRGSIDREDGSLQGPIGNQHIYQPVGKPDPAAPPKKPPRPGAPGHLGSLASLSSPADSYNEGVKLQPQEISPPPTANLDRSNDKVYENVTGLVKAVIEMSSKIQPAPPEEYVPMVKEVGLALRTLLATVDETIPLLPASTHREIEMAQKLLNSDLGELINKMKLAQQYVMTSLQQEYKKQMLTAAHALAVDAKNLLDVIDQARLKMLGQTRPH

IC50 (FAK recombinant protein)	IC50 (PC3 cells [1])	IC50 (PC3 cells [2])	IC50 (PC3 cells [3])	IC50 [4]	AUC(0-t) ([5]; iv, injection (1 mg/kg))	clearance ([5]; iv, injection (1 mg/kg))	half-life ([5]; iv, injection (1 mg/kg))	Vd ([5]; iv, injection (1 mg/kg))	AUC(0-t) ([5]; oral administration (10 mg/kg))	Cmax ([5]; oral administration (10 mg/kg))	Tmax ([5]; oral administration (10 mg/kg))	bioavailability ([5]; oral administration (10 mg/kg))	half-life ([5]; oral administration (10 mg/kg))	SMILES	TGI(%) [6]	TGI(%) [7]	TGI(%) [8]	also measured
< 20 nM	> 10000 nM	0.6 nM	1.16 nM	0.22 nM	1110 ng·h/mL	15 mL/min/kg	3.31 h	4.15 L/kg	8910 ng·h/mL	907 ng/mL	2 h	80.2%	2.2 h	COc1cc(N2CC3(CCN(C)CC3)C2)ccc1Nc1ncc(Cl)c(Oc2cccc3c2C(=O)N(C)C32CC2)n1 [Compound 136, 4′-((5-chloro-2-((2-methoxy-4-(7-methyl-2,7-diazaspiro[3.5]nonan-2-yl)phenyl)amino)pyrimidin-4-yl)oxy)-2′-methylspiro[cyclopropane-1,1′-isoindolin]-3′-one]	89.46%	76.67%	32.53%	
< 20 nM	> 10000 nM	1.99 nM	5.01 nM	0.028 nM	414 ng·h/mL	40.2 mL/min/kg	1.93 h	5.67 L/kg	2890 ng·h/mL	624 ng/mL	0.5 h	59.3%	3.32 h	COc1cc(N2CCN(C)CC2)ccc1Nc1ncc(C(F)(F)F)c(Oc2cccc3c2C(=O)N(C)C32CC2)n1 [Compound 73]		74.07%		
< 20 nM	> 2000 nM	0.46 nM	1.46 nM	< 0.01 nM	850 ng·h/mL	19.6 mL/min/kg	4.69 h	6.15 L/kg	6120 ng·h/mL	522 ng/mL	4 h	72%	5.26 h	COc1cc(N2CC3(CCN(C)CC3)C2)c(F)cc1Nc1ncc(C(F)(F)F)c(Oc2cccc3c2C(=O)N(C)C32CC2)n1 [Compound 120, 4′-((2-((5-fluoro-2-methoxy-4-(7-methyl-2,7-diazaspiro[3.5]nonan-2-yl)phenyl)amino)-5-(trifluoromethyl)pyrimidin-4-yl)oxy)-2′-methylspiro[cyclopropane-1,1′-isoindolin]-3′-one]		90.83%	66.33%	
< 20 nM	> 10000 nM	0.32 nM	1.09 nM		883 ng·h/mL	18.9 mL/min/kg	3.48 h	5.14 L/kg						COc1cc(N2CC3(CCN(C)CC3)C2)ccc1Nc1ncc(C(F)(F)F)c(Oc2cccc3c2C(=O)N(C)C32CC2)n1 [Compound 79]	89.35%	88.33%	69.21%	AUC(0-t) ([5]; oral administration, 5 mg/kg): 1760 ng·h/mL; Cmax ([5]; oral administration, 5 mg/kg): 201 ng/mL; Tmax ([5]; oral administration, 5 mg/kg): 4 h; bioavailability ([5]; oral administration, 5 mg/kg): 40%; half-life ([5]; oral administration, 5 mg/kg): 3.06 h
< 20 nM	> 10000 nM	1.4 nM	1.71 nM	0.08 nM	1390 ng·h/mL	12 mL/min/kg	3.67 h	3.71 L/kg	12400 ng·h/mL	810 ng/mL	4 h	89.4%	4.19 h	COc1cc(N2CC3(CCN(C)CC3)C2)c(F)cc1Nc1ncc(Cl)c(Oc2cccc3c2C(=O)N(C)C32CC2)n1 [Compound 137, 4′-((5-chloro-2-((5-fluoro-2-methoxy-4-(7-methyl-2,7-diazaspiro[3.5]nonan-2-yl)phenyl)amino)pyrimidin-4-yl)oxy)-2′-methylspiro[cyclopropane-1,1′-isoindolin]-3′-one]	87.68%	76.39%		
< 20 nM	> 2000 nM	2.01 nM	6.87 nM	0.025 nM	489 ng·h/mL	34 mL/min/kg	1.78 h	4.35 L/kg	2090 ng·h/mL	361 ng/mL	4 h	42.6%		COc1cc(C(=O)NC2CCN(C)CC2)c(F)cc1Nc1ncc(C(F)(F)F)c(Oc2cccc3c2C(=O)N(C)C32CC2)n1 [Compound 4]	69.02%	61.48%		
< 20 nM	> 2000 nM	5 to 50 nM	4.6 nM	0.7 nM	640 ng·h/mL	26.1 mL/min/kg	1.81 h	3.47 L/kg	7850 ng·h/mL	822 ng/mL	2 h	123%	2.22 h	COc1cc(C(=O)NC2CCN(C)CC2)c(F)cc1Nc1ncc(Cl)c(Oc2cccc3c2C(=O)N(C)C32CC2)n1 [Compound 117]	62.86%			
